From patent publication US12458605B2, “Lipid nanoparticle” (National University Corporation Hokkaido University, priority 2020, dated 2025)

Columns and labels:
F7 = test: In vivo F7 knockdown, plasma F7 enzyme activity (BIOPHEN FVII), Balb/c mice; details: for F7 enzyme activity (%) / F7 enzyme activity (Ratio using MC3 as 1): i.v. 0.025 mg siRNA/kg, plasma at 24 hours; for F7 enzyme activity (%): untreated mice as 100%; for knockdown activity, compared with MC3: F7siRNA-loaded LNP, versus LNP comprising MC3; for F7 enzyme activity (Ratio using MC3 as 1): relative plasma F7 activity of MC3 LNP as 1
Description: Then, each prepared F7siRNA-loaded lipid nanoparticles were administered to Balb/c mice (Charles River Laboratories Japan, Inc., 5 weeks old, female) and in vivo F7 knockdown activity was examined. Specifically, BALB/c mice were intravenously administered F7siRNA-loaded lipid nanoparticles comprising the lipids described in Table 9 at 0.025 mg siRNA/kg and F7siRNA-loaded lipid nanoparticles comprising the lipids described in Tables 10 and 11 at 0.025 mg siRNA/kg, and the plasma F7 enzyme activity at 24 hours later was measured using BIOPHEN FVII (Biophen, A221304). Relative plasma F7 enzyme activity (%) of mice administered each F7siRNA-loaded lipid nanoparticles was calculated using plasma F7 enzyme activity of untreated mice as 100%. Furthermore, the ratio was calculated using the relative plasma F7 enzyme activity (%) of mice administered MC3-comprising F7siRNA-loaded lipid nanoparticles as 1. The results of measurement of CL4F6 derivative nanoparticles are shown in Tables 9 and 10, and results of measurement of CL15F6 derivative nanoparticles in Table 11.

liver = test: In vivo Fluc activity of FlucmRNA-loaded LNP by in vivo imaging, liver; details: Balb/c mice, 6 hours; for Fluc Activity in liver: FlucmRNA-loaded LNP i.v. 0.1 mg mRNA/kg
Description: (§1) Then, each prepared FlucmRNA-loaded lipid nanoparticles were administered to Balb/c mice (Charles River Laboratories Japan, Inc., 7 weeks old, female) and in vivo gene expression activity was examined. Specifically, each FlucmRNA-loaded lipid nanoparticles were intravenously administered to Balb/c mice at 0.1 mg mRNA/kg, and Fluc activities in the liver and spleen at 6 hours later were measured. Fluc activity was measured by in vivo imaging system (Perkin Elmer, IVIS200) after administration of VivoGlo Luciferin, In Vivo Grade (Promega, P1041) dissolved with PBS to 15 mg/mL, via tail vein at a dose of 1.5 mg per mouse. The unit of Fluc activity is the emission intensity per unit area (Avg Radiance [p/s/cm2/sr]) at the maximum emission wavelength of about 560 nm. The results of measurement of the Fluc activity (Avg Radiance [p/s/cm2/sr]) in the liver and spleen of mice administered each FlucmRNA-loaded lipid nanoparticles are shown in Tables 5-7.

[1] = Average particle size (ζ-Average) and PDI by dynamic light scattering (Zetasizer Nano ZSP); type: physicochemical
Description: The average particle size (ζ-Average) and PDI in PBS(−) of lipid nanoparticles were measured using “Zetasizer Nano ZSP”, an analyzer utilizing dynamic light scattering (manufactured by Malvern).
Measurement of average particle size and PDI of the lipid nanoparticles were carried out with the same method as the measurement of average particle size of mRNA-LNP.
The average particle size (ζ-Average) and PDI in PBS (−) of lipid nanoparticles were measured using “Zetasizer Nano ZSP”, an analyzer utilizing dynamic light scattering (manufactured by Malvern).

spleen = test: In vivo Fluc activity of FlucmRNA-loaded LNP by in vivo imaging, spleen; details: Balb/c mice, 6 hours; for Fluc activity in the spleen, compared with CL4F6: 0.1 mg mRNA/kg, versus LNP comprising CL4F6 (Tables 5 and 6); for Fluc Activity in spleen: FlucmRNA-loaded LNP i.v. 0.1 mg mRNA/kg
Description: as §1

[2] = Storage stability of FlucmRNA-loaded LNP at −80, 5, 25 and 40° C.; type: physicochemical; details: for period for which quality remained good, −80° C.: maximum storage period 1 week; for period for which quality remained good, 5° C. / period for which quality remained good, 25° C. / period for which quality remained good, 40° C. (weeks) / period for which quality remained good, 40° C. (days): maximum storage period 5 weeks
Description: Lipid nanoparticles were allowed to stand at each temperature of −80° C., 5° C., 25° C., and 40° C., and after keeping for each period of time, average particle size, PDI, and nucleic acid encapsulation rate were measured. Lipid nanoparticles which satisfy following all three conditions were defined that the quality was remained well: the average particle size is maintained within +/−20 nm based on the date of LNP preparation; PDI remains high uniformity with a value of 0.2 or less; and the nucleic acid encapsulation rate is also maintained at 80% or more. As a result of measuring average particle size, PDI, and nucleic acid encapsulation rate after each FlucmRNA-loaded lipid nanoparticle was allowed to stand at −80° C., 5° C., 25° C., and 40° C. respectively and kept for each period of time, periods of time defined as the quality of the lipid nanoparticles was remained well are shown in Tables 13 and 14. The lipid nanoparticles which remain in good quality with standing at 5° C. for one week or more can be evaluated as having excellent stability.

[3] = siRNA/mRNA encapsulation rate by Ribogreen reagent (section IV); type: physicochemical; details: for % siRNA encapsulation: F7siRNA-loaded LNP, 50:10:38.5:1.5, N/P ratio 6; for % mRNA encapsulation: FlucmRNA-loaded LNP, 50:10:38.5:1.5
Description: The encapsulation rates of siRNA and mRNA of lipid nanoparticles were measured with Ribogreen reagent. A solution diluted with TE buffer solution was arranged so that lipid nanoparticle concentration as nucleic acid concentration to be 8 μg/mL, as a solution for measuring nanoparticle surface nucleic acid concentration. In addition, a solution for measuring total nucleic acid concentration was arranged so that lipid nanoparticle concentration as nucleic acid concentration to be 1.2 μg/mL, which is 1% (w/w) concentration of X-triton100, by adding X-triton100. For 100 μL of each solution, 100 μL of Ribogreen (registered trademark) reagent (Quant-iT™ RiboGreen™ RNA Reagent, manufactured by Thermofisher Scientific) was mixed well in the wells of 96-well microplate (black, made of polystyrene, flat bottom, manufactured by Corning), and the fluorescence intensity at an excitation wavelength of 485 nm and a measurement wavelength of 528 nm was measured with a microplate reader. Nucleic acid concentration was calculated by calibration curve created by measuring the fluorescence intensity of nucleic acid solution containing 1% X-triton100 (nucleic acid concentration: 0-2.5 μg/mL) as same as aforementioned. Nucleic acid encapsulation rate of each lipid nanoparticle was calculated by the following formula: Encapsulation rate %=(nucleic acid concentration in solution for measuring total nucleic acid concentration (μg/mL)−nucleic acid concentration in solution for measuring nanoparticle surface nucleic acid concentration (μg/mL))/nucleic acid concentration in solution for measuring total nucleic acid concentration (μg/mL)×100. <Results>
The encapsulation rate of mRNA of lipid nanoparticles was measured using Ribogreen (manufactured by life technologies).

[4] = F7siRNA-loaded LNP, 50:10:38.5:1.5, N/P ratio 6
[5] = FlucmRNA-loaded LNP, 50:10:38.5:1.5
[6] = FlucmRNA-loaded LNP, lipid:DSPC:cholesterol:DMG-PEG2K 50:10:38.5:1.5

SMILES	F7 enzyme activity (%) (F7)	Fluc Activity in liver (liver)	PDI [1, 4]	ζ-Average (nm) [1, 4] [nm]	PDI [1, 5]	ζ-Average (nm) [1, 6] [nm]	Fluc activity in the spleen, compared with CL4F6 (spleen)	Fluc Activity in spleen (spleen)	period for which quality remained good, −80° C. [2] [week]	period for which quality remained good, 5° C. [2] [weeks]	period for which quality remained good, 25° C. [2] [weeks]	period for which quality remained good, 40° C. (weeks) [2]	% siRNA encapsulation [3] [%]	% mRNA encapsulation [3] [%]	knockdown activity, compared with MC3 (F7)	F7 enzyme activity (Ratio using MC3 as 1) (F7)	Fluc activity in the liver, compared with CL4F6 (liver; 0.1 mg mRNA/kg, versus LNP comprising CL4F6 (Tables 5 and 6))	period for which quality remained good, 40° C. (days) [2] [day days]
CCCCCC(CCCCC)C(=O)OCCCCCCC(O)(CCCCCCOC(=O)C(CCCCC)CCCCC)CCCCN(CCC)CCC [CL4F 7-5]	35.7	4.56E+07 Avg Radiance [p/s/cm2/sr]	0.021	120.20	0.057	109.80	higher Fluc activity	1.47E+07 Avg Radiance [p/s/cm2/sr]	1	2	5	1 week weeks	100.1	99.9	–	–	–	–
CCCCCCC(CCCCC)C(=O)OCCCCCCC(O)(CCCCCCOC(=O)C(CCCCC)CCCCCC)CCCCN(CCC)CCC (stereo not drawn) [CL4F 8-5]	–	4.80E+07 Avg Radiance [p/s/cm2/sr]	0.034	103.40	0.043	94.65	higher Fluc activity	1.45E+07 Avg Radiance [p/s/cm2/sr]	1	5	5	5 weeks	99.7	99.1	higher knockdown activity	0.38	–	–
CCCCCCC(CCCCCC)C(=O)OCCCCCCC(O)(CCCCCCOC(=O)C(CCCCCC)CCCCCC)CCCCN(CCC)CCC [CL4F 8-6]	3	1.80E+08 Avg Radiance [p/s/cm2/sr]	0.010	99.72	0.022	88.78	higher Fluc activity	9.58E+06 Avg Radiance [p/s/cm2/sr]	1	5	5	1 week weeks	100.0	99.4	–	–	higher Fluc activity	–
CCCCCCCC(CCC)C(=O)OCCCCCCC(O)(CCCCCCOC(=O)C(CCC)CCCCCCC)CCCCN(CCC)CCC (stereo not drawn) [CL4F 9-3]	11.7	2.96E+07 Avg Radiance [p/s/cm2/sr]	0.022	114.40	0.030	102.80	higher Fluc activity	8.17E+06 Avg Radiance [p/s/cm2/sr]	1	5	5	–	99.9	99.6	–	–	–	0
CCCCCCCC(CCCCC)C(=O)OCCCCCCC(O)(CCCCCCOC(=O)C(CCCCC)CCCCCCC)CCCCN(CCC)CCC (stereo not drawn) [CL4F 9-5]	–	6.84E+07 Avg Radiance [p/s/cm2/sr]	0.032	99.72	0.048	89.41	higher Fluc activity	9.53E+06 Avg Radiance [p/s/cm2/sr]	1	5	5	5 weeks	99.9	99.0	higher knockdown activity	0.43	–	–
CCCCCCCCC(CC)C(=O)OCCCCCCC(O)(CCCCCCOC(=O)C(CC)CCCCCCCC)CCCCN(CCC)CCC (stereo not drawn) [CL4F 10-2]	11.4	3.02E+07 Avg Radiance [p/s/cm2/sr]	0.024	115.60	0.068	93.60	higher Fluc activity	6.40E+06 Avg Radiance [p/s/cm2/sr]	0	5	1	–	99.6	98.6	–	–	–	0
